# Experimental data: patent publication US9072703B2 (Ipsen Pharma S.A.S., priority 2008, dated 2015)
# Non-standard residues stand in square brackets, D forms with d. Residues, ends and D or L forms follow the SMILES beside them. No end group written: not given here. *: point of attachment. Myristoyl = CCCCCCCCCCCCCC(=O)*; 12Ado = NCCCCCCCCCCCC(=O)O; Ac6c = NC1(C(=O)O)CCCCC1; Orn = NCCC[C@H](N)C(=O)O; Ac5c = NC1(C(=O)O)CCCC1
# Experiments:
# [1] = Human plasma half-life assay; type: in vitro ADME; details: 37° C., LC-MS, read-out: Human Plasma T½ (converted)
# Experimental: (§1) B. Human and Rat Plasma Half-Life Assay
# (§2) 50 μL was removed at various times, like at 0, 1, 2, 3, 4, 8, 24, 32, 48, 56, 72 hours, mixed with 5 μL formic acid and 150 μL acetonitrile in a microcentrifuge tube, vertexed, and centrifuged for 10 minutes at 10K rpm. The supernatant was transferred to an injection vial and analyzed by LC-MS. The LC-MS system consisted of an API4000 mass spectrometer with an ESI probe. Positive ion mode and full scan detection were used. HPLC separation was carried out on a Luna 3μ C8 (2), 2×30 mm column with a gradient from 90% A to 90% B in 10 minutes at a flow rate of 0.3 ml/min. Buffer A was 1% formic acid in water and buffer B was 1% formic acid acetonitrile.
# [2] = Rat plasma half-life assay; type: in vitro ADME; details: 37° C., LC-MS, read-out: Rat Plasma T½ (converted)
# Experimental: as §1, §2
Compound,half-life at 0.1 mg/ml [1] [h],half-life at 0.1 mg/ml [2] [h]
"H-YAEGTF[Ac6c]SDYSIAMDKIHQQDFVNWLLAQKGKKN[Orn](Myristoyl)WKHNITQ-OH [Example 18, [A6c^7, Orn^35(N—C(O)—(CH2)12—CH3)]hGIP(1-42)-OH]",7.3,16.7
"CCCCCCCCCCCC(=O)NCCCC[C@H](NC(=O)[C@H](CCC(N)=O)NC(=O)[C@@H](NC(=O)[C@@H](NC(=O)[C@H](CC(N)=O)NC(=O)[C@H](Cc1c[nH]cn1)NC(=O)[C@H](CCCCN)NC(=O)[C@H](Cc1c[nH]c2ccccc12)NC(=O)[C@H](CC(=O)O)NC(=O)[C@H](CC(N)=O)NC(=O)[C@H](CCCCN)NC(=O)[C@H](CCCCN)NC(=O)CNC(=O)[C@H](CCCCN)NC(=O)[C@H](CCC(N)=O)NC(=O)[C@H](C)NC(=O)[C@H](CC(C)C)NC(=O)[C@H](CC(C)C)NC(=O)[C@H](Cc1c[nH]c2ccccc12)NC(=O)[C@H](CC(N)=O)NC(=O)[C@@H](NC(=O)[C@H](Cc1ccccc1)NC(=O)[C@H](CC(=O)O)NC(=O)[C@H](CCC(N)=O)NC(=O)[C@H](CCC(N)=O)NC(=O)[C@H](Cc1c[nH]cn1)NC(=O)[C@@H](NC(=O)[C@H](CCCCN)NC(=O)[C@H](CC(=O)O)NC(=O)[C@H](CCSC)NC(=O)[C@H](C)NC(=O)[C@@H](NC(=O)C1(NC(=O)[C@H](Cc2ccc(O)cc2)NC(=O)[C@H](CC(=O)O)NC(=O)[C@H](CO)NC(=O)[C@@H](NC(=O)[C@H](Cc2ccccc2)NC(=O)[C@@H](NC(=O)CNC(=O)[C@H](CCC(=O)O)NC(=O)[C@H](C)NC(=O)[C@@H](N)Cc2ccc(O)cc2)[C@@H](C)O)[C@@H](C)CC)CCCC1)[C@@H](C)CC)[C@@H](C)CC)C(C)C)[C@@H](C)CC)[C@@H](C)O)C(=O)O [Example 36, [A5c^11, Lys^43(N—C(O)—(CH2)10—CH3)]hGIP(1-43)-OH]",14.8,53.3
"CCCCCCCCCCCCCCCC(=O)NCCCC[C@H](NC(=O)[C@H](CCC(N)=O)NC(=O)[C@@H](NC(=O)[C@@H](NC(=O)[C@H](CC(N)=O)NC(=O)[C@H](Cc1c[nH]cn1)NC(=O)[C@H](CCCCN)NC(=O)[C@H](Cc1c[nH]c2ccccc12)NC(=O)[C@H](CC(=O)O)NC(=O)[C@H](CC(N)=O)NC(=O)[C@H](CCCCN)NC(=O)[C@H](CCCCN)NC(=O)CNC(=O)[C@H](CCCCN)NC(=O)[C@H](CCC(N)=O)NC(=O)[C@H](C)NC(=O)[C@H](CC(C)C)NC(=O)[C@H](CC(C)C)NC(=O)[C@H](Cc1c[nH]c2ccccc12)NC(=O)[C@H](CC(N)=O)NC(=O)[C@@H](NC(=O)[C@H](Cc1ccccc1)NC(=O)[C@H](CC(=O)O)NC(=O)[C@H](CCC(N)=O)NC(=O)[C@H](CCC(N)=O)NC(=O)[C@H](Cc1c[nH]cn1)NC(=O)[C@@H](NC(=O)[C@H](CCCCN)NC(=O)[C@H](CC(=O)O)NC(=O)[C@H](CCSC)NC(=O)[C@H](C)NC(=O)[C@@H](NC(=O)C1(NC(=O)[C@H](Cc2ccc(O)cc2)NC(=O)[C@H](CC(=O)O)NC(=O)[C@H](CO)NC(=O)[C@@H](NC(=O)[C@H](Cc2ccccc2)NC(=O)[C@@H](NC(=O)CNC(=O)[C@H](CCC(=O)O)NC(=O)[C@H](C)NC(=O)[C@@H](N)Cc2ccc(O)cc2)[C@@H](C)O)[C@@H](C)CC)CCCC1)[C@@H](C)CC)[C@@H](C)CC)C(C)C)[C@@H](C)CC)[C@@H](C)O)C(=O)O [Example 40, [A5c^11, Lys^43(N—C(O)—(CH2)14—CH3)]hGIP(1-43)-OH]",17.2,19.3
"YAEGTFISDY[Ac5c]IAMDKIHQQDFVNWLLAQKGKKNDWKHNITQ[12Ado]-OH [Example 13, (A5c^11, Ado^43)hGIP(1-43)-OH]",13.1,18.8
"CC[C@H](C)[C@H](NC(=O)[C@H](CCCCN)NC(=O)[C@H](CC(=O)O)NC(=O)[C@H](CCSC)NC(=O)[C@H](C)NC(=O)[C@@H](NC(=O)C1(NC(=O)[C@H](Cc2ccc(O)cc2)NC(=O)[C@H](CC(=O)O)NC(=O)[C@H](CO)NC(=O)[C@@H](NC(=O)[C@H](Cc2ccccc2)NC(=O)[C@@H](NC(=O)CNC(=O)[C@H](CCC(=O)O)NC(=O)[C@H](C)NC(=O)[C@@H](N)Cc2ccc(O)cc2)[C@@H](C)O)[C@@H](C)CC)CCCC1)[C@@H](C)CC)C(=O)N[C@@H](Cc1c[nH]cn1)C(=O)N[C@@H](CCC(N)=O)C(=O)N[C@@H](CCC(N)=O)C(=O)N[C@@H](CC(=O)O)C(=O)N[C@@H](Cc1ccccc1)C(=O)N[C@H](C(=O)N[C@@H](CC(N)=O)C(=O)N[C@@H](Cc1c[nH]c2ccccc12)C(=O)N[C@@H](CC(C)C)C(=O)N[C@@H](CC(C)C)C(=O)N[C@@H](C)C(=O)N[C@@H](CCC(N)=O)C(=O)N[C@@H](CCCCN)C(=O)N[C@@H](Cc1c[nH]cn1)C(N)=O)C(C)C [Example 29, (A5c^11, His^31)hGIP(1-31)-NH2] (H-YAEGTFISDY[Ac5c]IAMDKIHQQDFVNWLLAQKH-NH2; N-terminus assumed)",7.2,7.5
"YAEGTFISDY[Ac6c]IA[Ac6c]DKIHQQDFVNWLLAQKGKKNDWKHNI[Ac6c]Q-OH [Example 11, (A6c^11, 14, 41)hGIP(1-42)-OH]",13.1,8.6
"YAEGTFISDY[Ac5c]IAMDKIHQQDFVNWLLAQKGCKNDWKHNI[Ac5c]Q-NH2 [Example 31, (A5c^11, 41, Cys^32)hGIP(1-42)-NH2]",26.6,16.3
"CCCCCCCCCCCCCCCC(=O)NCCC[C@H](NC(=O)CNC(=O)[C@H](CCCCN)NC(=O)[C@H](CCC(N)=O)NC(=O)[C@H](C)NC(=O)[C@H](CC(C)C)NC(=O)[C@H](CC(C)C)NC(=O)[C@H](Cc1c[nH]c2ccccc12)NC(=O)[C@H](CC(N)=O)NC(=O)[C@@H](NC(=O)[C@H](Cc1ccccc1)NC(=O)[C@H](CC(=O)O)NC(=O)[C@H](CCC(N)=O)NC(=O)[C@H](CCC(N)=O)NC(=O)[C@H](Cc1c[nH]cn1)NC(=O)[C@@H](NC(=O)[C@H](CCCCN)NC(=O)[C@H](CC(=O)O)NC(=O)[C@H](CCSC)NC(=O)[C@H](C)NC(=O)[C@@H](NC(=O)C1(NC(=O)[C@H](Cc2ccc(O)cc2)NC(=O)[C@H](CC(=O)O)NC(=O)[C@H](CO)NC(=O)[C@@H](NC(=O)[C@H](Cc2ccccc2)NC(=O)[C@@H](NC(=O)CNC(=O)[C@H](CCC(=O)O)NC(=O)[C@H](C)NC(=O)[C@@H](N)Cc2ccc(O)cc2)[C@@H](C)O)[C@@H](C)CC)CCCC1)[C@@H](C)CC)[C@@H](C)CC)C(C)C)C(=O)N[C@@H](CCCCN)C(=O)N[C@@H](CC(N)=O)C(=O)N[C@@H](CC(=O)O)C(=O)N[C@@H](Cc1c[nH]c2ccccc12)C(=O)N[C@@H](CCCCN)C(=O)N[C@@H](Cc1c[nH]cn1)C(=O)N[C@@H](CC(N)=O)C(=O)N[C@H](C(=O)N[C@H](C(=O)N[C@@H](CCC(N)=O)C(=O)N[C@@H](Cc1c[nH]cn1)C(=O)O)[C@@H](C)O)[C@@H](C)CC [Example 41, [A5c^11, Orn^32(N—C(O)—(CH2)14—CH3), His^43]hGIP(1-43)-OH]",6.6,22.9
